Reference: patent US9682995B2, “Amino-substituted isothiazoles” (BAYER PHARMA AKTIENGESELLSCHAFT, priority 2013, dated 2017)

How the values were obtained:
Type in all cases: cell-based
[1] = test system: NCI-H460; assay: Proliferation assay (crystal violet), NCI-H460; conditions: Homo sapiens, 96 h; NCI-H460, 4 days; read-out: Inhibition of proliferation IC50 NCI-H460
Experimental: (§1) Cultivated tumor cells (cells were ordered from ATCC, except HeLa-MaTu and HeLa-MaTu-ADR, which were ordered from EPO-GmbH, Berlin) were plated at a density of 1000 to 5000 cells/well, depending on the growth rate of the respective cell line, in a 96-well multititer plate in 200 μL of their respective growth medium supplemented 10% fetal calf serum. After 24 hours, the cells of one plate (zero-point plate) were stained with crystal violet (see below), while the medium of the other plates was replaced by fresh culture medium (200 μl), to which the test substances were added in various concentrations (0 μM, as well as in the range of 0.001-10 μM; the final concentration of the solvent dimethyl sulfoxide was 0.5%). The cells were incubated for 4 days in the presence of test substances. Cell proliferation was determined by staining the cells with crystal violet: the cells were fixed by adding 20 μl/measuring point of an 11% glutaric aldehyde solution for 15 minutes at room temperature. After three washing cycles of the fixed cells with water, the plates were dried at room temperature. The cells were stained by adding 100 μl/measuring point of a 0.1% crystal violet solution (pH 3.0). After three washing cycles of the stained cells with water, the plates were dried at room temperature. The dye was dissolved by adding 100 μl/measuring point of a 10% acetic acid solution. Absorption was determined by photometry at a wavelength of 595 nm. The change of cell number, in percent, was calculated by normalization of the measured values to the absorption values of the zero-point plate (=0%) and the absorption of the untreated (0 μm) cells (=100%). The IC50 values were determined by means of a 4 parameter fit.

[2] = test system: HeLa-MaTu-ADR; assay: Proliferation assay (crystal violet), HeLa-MaTu-ADR; conditions: 96 h, 4 days, read-out: Inhibition of proliferation IC50 HeLa-MaTu-ADR
Experimental: as §1

[3] = test system: Caco2; assay: Proliferation assay (crystal violet), Caco2; conditions: Homo sapiens, Caco-2, 96 h; Caco2, 4 days; read-out: Inhibition of proliferation IC50 Caco2
Experimental: as §1

[4] = test system: DU145; assay: Proliferation assay (crystal violet), DU145; conditions: Homo sapiens, DU-145, 96 h; DU145, 4 days; read-out: Inhibition of proliferation IC50 DU145
Experimental: as §1

[5] = test system: B16F10; assay: Proliferation assay (crystal violet), B16F10; conditions: Mus musculus, B16-F10, 96 h; B16F10, 4 days; read-out: Inhibition of proliferation IC50 B16F10
Experimental: as §1

SMILES | IC50 [1] [µM] | IC50 [2] [µM] | IC50 [3] [µM] | IC50 [4] [µM] | IC50 [5] [µM]
CCc1ccccc1NC(=O)c1c(C)nsc1Nc1cnc2ccccc2n1 [Example 19, N-(2-Ethylphenyl)-3-methyl-5-(quinoxalin-2-ylamino)-1,2-thiazole-4-carboxamide] | 1.5 | 0.41 | 0.97 | 2.5 | 1.8
CCc1ccccc1NC(=O)c1c(C)nsc1Nc1nc(C)nc2ccccc12 [Example 35, N-(2-Ethylphenyl)-3-methyl-5-[(2-methylquinazolin-4-yl)amino]-1,2-thiazole-4-carboxamide] | 1.6 | 0.61 | 1.6 | 2.4 | 1.7
Cc1nsc(Nc2cnccn2)c1C(=O)Nc1ccc(Cl)c(F)c1 [Example 56, N-(4-Chloro-3-fluorophenyl)-3-methyl-5-(pyrazin-2-ylamino)-1,2-thiazole-4-carboxamide] | 0.37 | 0.37 | 0.56 | 0.54 | 0.47
CCc1ccccc1NC(=O)c1c(C)nsc1Nc1cnc2cccc(C)c2n1 [Example 33, N-(2-Ethylphenyl)-3-methyl-5-[(8-methylquinoxalin-2-yl)amino]-1,2-thiazole-4-carboxamide] | 1.2 | 0.85 | 0.74 | 1.3 | 1.4
COc1ccc(NC(=O)c2c(C)nsc2Nc2cnc3cc(Cl)ccc3n2)cn1 [Example 23, 5-[(6-Chloroquinoxalin-2-yl)amino]-N-(6-methoxypyridin-3-yl)-3-methyl-1,2-thiazole-4-carboxamide] | 2.2 | 2.7 | 2.4 | 9.4 | 8.4

These reach a lower IC50 [1]. Values come first.

IC50 [1] [µM] | IC50 [2] [µM] | IC50 [3] [µM] | IC50 [4] [µM] | IC50 [5] [µM] | SMILES
0.28 | 0.37 | 0.069 | 0.16 | 0.47 | Cc1nsc(Nc2nc3c(C(F)(F)F)cccc3s2)c1C(=O)Nc1ccc(F)c(F)c1 [Example 51, N-(3,4-Difluorophenyl)-3-methyl-5-{[4-(trifluoromethyl)-1,3-benzothiazol-2-yl]-amino}-1,2-thiazole-4-carboxamide]
0.21 | 0.65 | 1.3 | 1.2 | 0.86 | Cc1nsc(Nc2cc(C#N)ccn2)c1C(=O)Nc1ccc(Cl)c(F)c1 [Example 54, N-(4-Chloro-3-fluorophenyl)-5-[(4-cyanopyridin-2-yl)amino]-3-methyl-1,2-thiazole-4-carboxamide]
0.21 | 0.35 | 0.43 | 0.6 | 0.43 | COc1ccc(NC(=O)c2c(C)nsc2Nc2nc3c(C(F)(F)F)cccc3s2)cn1 [Example 48, N-(6-Methoxypyridin-3-yl)-3-methyl-5-{[4-(trifluoromethyl)-1,3-benzothiazol-2-yl]-amino}-1,2-thiazole-4-carboxamide]
0.13 | 0.26 | 0.38 | 0.42 | 0.23 | COc1ccc(NC(=O)c2c(C)nsc2Nc2cnc3c(F)c(F)ccc3n2)cn1 [Example 43, 5-[(5,6-Difluoroquinoxalin-2-yl)amino]-N-(6-methoxypyridin-3-yl)-3-methyl-1,2-thiazole-4-carboxamide]
0.13 | 0.13 | 0.19 | 0.31 | 0.23 | Cc1nsc(Nc2ccc(C#N)cn2)c1C(=O)Nc1ccc(Cl)c(F)c1 [Example 52, N-(4-Chloro-3-fluorophenyl)-5-[(5-cyanopyridin-2-yl)amino]-3-methyl-1,2-thiazole-4-carboxamide]
0.1 | 0.3 | 0.38 | 0.46 | 0.19 | COc1ccc(NC(=O)c2c(C)nsc2Nc2cnc3cc(C(F)(F)F)ccc3n2)cn1 [Example 45, N-(6-Methoxypyridin-3-yl)-3-methyl-5-{[6-(trifluoromethyl)quinoxalin-2-yl]amino}-1,2-thiazole-4-carboxamide]
